Source: article PMC12266748, “A Xanthine Derivative With Novel Heat Shock Protein 90‐Alpha Inhibitory and Senolytic Properties” (Aging Cell, 2025)

Key:
p16-3MR mice = assay: Pilot study in aged p16-3MR mice (safety, bioluminescence, ear biopsy markers, cytokines); format: in vivo
Procedure: Sections were prepared from organs and ear biopsies from snap‐frozen tissues and mounted on SuperFrost Plus slides (VWR). SA‐β‐gal staining was performed according to the manufacturer's instructions for the Sigma‐Aldrich‐QIA117 staining kit (Sigma‐Aldrich). Nuclei were counterstained with Nuclear Fast Red (Sigma‐Aldrich), and images were acquired using a Zeiss AxioCam HRc mounted on a Leitz Laborlux S light microscope. The percentage of senescent cells was determined with QuPath v. 0.3.2 (Bankhead et al. [2017]).
All experiments were performed per the European Community Council Directives of 2010/63/UE. The pilot study (PS) investigated safety and potential senolytic efficacy, and the Extended study (ES) investigated functional changes, pathological phenotype, and the principal organ targeted by K5. Protocols were approved according to current Italian law (D.Lgs. n. 26/2014) by OPBA (animal care and health committee) of IRCCS INRCA and by the General Direction of Animal Health and Veterinary Drugs of the Italian Ministry of Health with authorization n°‐137/2021‐PR for PS and authorization n°‐370/2022‐PR for ES. In the PS of p16‐3MR mice (26 months), bioluminescence associated with p16‐expression was monitored before and after treatment, and the health of the mice was longitudinally studied. The ES used geriatric C57BL/6J mice (31 months). Clinical health and physical performance were analyzed before and after K5 treatment. Subsequently, the animals were euthanized, gross necropsies were performed, and organs were collected for further analysis. Detailed protocols are reported in the extended section.
Blood samples were collected from the right retroorbital plexus. Glucose (GLUC), creatinine (CREA), aspartate aminotransferase (AST/GOT), and alanine aminotransferase (ALT/GPT) were determined in EDTA‐plasma by using an automated analyzer (Cobas Mira, Roche) according to the manufacturer's instructions. Cytokines were measured in EDTA‐plasma using the ProcartaPlex Mouse Cytokine & Chemokine Panel 1, 26plex (Thermofisher) and read in the Luminex 200 instrument (Bio‐Rad), following the producer's recommendation.
Total RNA was extracted from ear biopsies using the RNeasy kit (Qiagen) according to the manufacturer's instructions and quantified by NanoDrop. β‐actin, p‐21, and p‐53 gene expression levels were analyzed on a BioRad iQ5 optical RT‐PCR (BioRad).
Experimental animals' bioluminescence imaging (BLI) was performed with an IVIS Spectrum system (PerkinElmer). Mice were intraperitoneally injected with Xenolight RediJect Coelenterazine h (PerkinElmer), and bioluminescent images were obtained with mice in the dorsal and ventral positions; the Living Image software quantified bioluminescence acquired by the CCD camera.
. To explore the safety of K5 and its potential impact on the aging process, p16-3MR mice were longitudinally studied in this pilot experiment. They were monitored once a month until natural death using a non-invasive protocol designed to assess their clinical health and physical performance across various functional domains associated with frailty. Additionally, to provide an initial overview of K5 effects on senescent cells, non-invasive and exploratory analyses (senescence markers in ear biopsies, p16 expression measured by in vivo bioluminescence assay, and circulating cytokine profile) were performed before the start of the treatment (T0) and after 20 days following the end of K5 administration (T1).
Circulating cytokines assay. Blood samples were collected from the right retroorbital plexus of anesthetized mice. Blood samples were deposited in serum separator gel tubes (Microvette CB300, Sarstedt) and centrifuged (1000 × g, 10 min) for serum separation. Concentrations of glucose (GLUC), creatinine (CREA), aspartate aminotransferase (AST/GOT), and alanine aminotransferase (ALT/GPT) were determined in EDTA-plasma by using an automated analyzer (Cobas Mira, Roche) according to the manufacturer's instructions. […]

IMR90 cells = assay: SA-β-galactosidase colorimetric assay on senescent IMR90; format: cell-based, Homo sapiens
Procedure: Previously treated cells were fixed according to the protocols established by the supplier (Cell Signaling). The images were acquired using an optical microscope (Leica) with 5× and 10× magnification (MAG) or the phase microscopy EVOS XL Core at 10× MAG and analyzed using the ImageJ software. The mean signal intensity was then normalized for the total number of cells.
β-galactosidase colorimetric assay. For cell cultures: Previously treated cells were fixed with the fixative solution for 10 min at RT according to the protocols established by the supplier (Senescence β-Galactosidase Staining Kit, #9860S, Cell Signaling, Danvers, MA, USA) Cells were then incubated with the substrate, X-gal, in a solution at pH 6, at 37°C, overnight (16 h) (Itahana et al. 2007). The images were acquired using an optical microscope (Leica, Wetzlar, Germany) with 5 and 10X magnification or the phase microscopy EVOS XL Core at 10X magnification. The images were analyzed using the ImageJ software, quantifying the colorimetric signal emitted by each cell. The mean signal intensity was then normalized for the total number of cells.

Compound: Cc1ccccc1-n1c(=O)n(Cc2ccccc2)c(=O)c2[nH]cnc21 [Compound K5, 1-benzyl-3-(2-methylphenyl)-7H-purine-2,6-dione]
- median lifespan of treated animals, females (p16-3MR mice; 10 mg/kg i.p., p16-3MR mice): 953 ± 35 days
- median lifespan of treated animals, males (p16-3MR mice; 10 mg/kg i.p., p16-3MR mice): 1097 ± 78 days
- adverse reactions, behavioral stereotypes, mortality after administration (p16-3MR mice; 10 mg/kg i.p., three injections over three consecutive days): did not induce any adverse reactions
- SA-β-gal activity in ear biopsies (p16-3MR mice; T1, 10 mg/kg i.p.): reduction
- circulating IL-1β (p16-3MR mice; T1 vs T0, 10 mg/kg i.p.): trend (p < 0.01) toward decreased
- circulating IL-6 (p16-3MR mice; T1 vs T0, 10 mg/kg i.p.): reduction
- p16 expression by in vivo bioluminescence, ventral and dorsal signals (p16-3MR mice; T1 vs T0, 10 mg/kg i.p.): significant reduction
- p21 mRNA expression in ear biopsies (p16-3MR mice; T1 vs T0, 10 mg/kg i.p.): decreasing trend
- p53 mRNA expression in ear biopsies (p16-3MR mice; T1 vs T0, 10 mg/kg i.p.): reduction in p53 expression at T1 was statistically significant
- reduced SA-β-gal+ cells (IMR90 cells): 20%
